Source: patent US7468376B2, “Pyrazolopyridine derivates” (Palau Pharma, S.A., priority 2003, dated 2008)

System: TNF-α release induced by LPS in human peripheral blood mononuclear cells
Experiment: Test 2: Inhibition of TNF-α release induced by LPS in human peripheral blood mononuclear cells
Assay type: cell-based
Conditions: test product at 0.1 μM, LPS 400 ng/mL, 19 h, TNF-α in supernatant by ELISA; for inhibition at 0.1 µM: Homo sapiens, PBMC
Description: Test 2: Inhibition of TNF-α Release Induced by LPS in Human Peripheral Blood Mononuclear Cells
To obtain the mononuclear cells: heparinized venous blood, obtained from healthy volunteers, is diluted with an equal volume of saline phosphate buffer without calcium or magnesium. Aliquots of 30 mL of the mixture are transferred to 50 mL centrifuge tubes containing 15 mL of Ficoll-Hypaque (1.077 g/mL). The tubes are centrifuged at 1200×g for 20 min at room temperature without braking. Approximately two-thirds of the band of platelets lying above the mononuclear cells is removed with a pipette. The mononuclear cells are carefully transferred to a 50 mL tube, washed twice with saline phosphate buffer, centrifuged at 300×g for 10 min at room temperature and resuspended in RPMI supplemented with 1% inactivated fetal bovine serum at a cell density of 2×10^6 cells/mL.
Inhibition of TNF-α release: 100 μL of mononuclear cells (2×10^6 cells/mL) are incubated on 96-well plates with 50 μL of the test product (final concentration, 0.001-10 μM) and 50 μL LPS (E. coli 055B5, Sigma) at a final concentration of 400 ng/mL for 19 h at 37° C. in an atmosphere with CO2 at 5%. The amount of TNF-α released in the supernatant is quantified using a commercial ELISA kit (Biosource International).

Row | Compound | % Inhibition at 0.1 μM [%] | inhibition at 0.1 µM [%]
1 | Cn1cc2c(-c3ccc(Br)s3)c(-c3ccncc3)c(-c3ccc(F)cc3)nc2n1 [Example 188, 4-(5-Bromothien-2-yl)-6-(4-fluoro-phenyl)-2-methyl-5-(4-pyridyl)-1H-pyrazolo[3,4-b]pyridine] | 73.2 | 
2 | OCCCn1cc2c(-c3ccc(F)cc3)c(-c3ccnc(NCC4CC4)n3)c(-c3ccc(F)cc3)nc2n1 [Example 213, 3-[5-[2-[(Cyclopropylmethyl)amino]-pyrimidin-4-yl]-4,6-bis(4-fluorophenyl)pyrazolo[3,4-b]pyridin-2-yl]propan-1-ol] |  | 68.1
3 | OCCn1cc2c(-c3ccccc3)c(-c3ccncc3)c(-c3ccccc3)nc2n1 [Example 196, 2-[4,6-Diphenyl-5-(4-pyridyl)pyrazolo-[3,4-b]pyridin-2-yl]ethanol] |  | 70.2
4 | Cc1n[nH]c2nc(-c3ccc(F)cc3)c(-c3ccncc3)c(-c3ccc(F)cc3)c12 [Example 4, 4,6-Bis(4-fluorophenyl)-3-methyl-5-(4-pyridyl)-1H-pyrazolo[3,4-b]pyridine] |  | 68.4
5 | Fc1ccc(-c2nc3[nH]ncc3c(-c3cc[nH]n3)c2-c2ccncc2)cc1 [Example 217, 6-(4-Fluorophenyl)-4-(1H-pyrazol-3-yl)-5-(4-pyridyl)-1H-pyrazolo[3,4-b]pyridine] |  | 53.8
6 | CCn1cc2c(-c3ccc(F)cc3)c(-c3ccncc3)c(-c3ccc(F)cc3)nc2n1 [Example 6, 2-Ethyl-4,6-bis(4-fluorophenyl)-5-(4-pyridyl)pyrazolo[3,4-b]pyridine] |  | 81.4
7 | Fc1ccc(-c2nc3nn(C4CCNCC4)cc3c(-c3ccc(F)cc3)c2-c2ccncc2)cc1 [Example 36, 4,6-Bis(4-fluorophenyl)-2-(4-piperidyl)-5-(4-pyridyl)pyrazolo[3,4-b]pyridine] |  | 92
8 | C[C@H](Nc1nccc(-c2cc3cn(CCCO)nc3nc2-c2cccc(C(F)(F)F)c2)n1)c1ccccc1 [Example 209, (1S)-3-[5-[2-(1-Phenylethylamino)-pyrimidin-4-yl]-6-(3-trifluoromethylphenyl)pyrazolo[3,4-b]pyridin-2-yl]propan-1-ol] |  | 84.2
9 | OCCCn1cc2c(-c3ccc(F)cc3)c(-c3ccncc3)c(-c3ccc(F)cc3)nc2n1 [Example 18, 3-[4,6-Bis(4-fluorophenyl)-5-(4-pyridyl)pyrazolo[3,4-b]pirridin-2-yl]propan-1-ol] | 82.6 | 
10 | Fc1ccc(-c2nc3nn(Cc4cccnc4)cc3c(-c3ccc(F)cc3)c2-c2ccncc2)cc1 [Example 102, 4,6-Bis(4-fluorophenyl)-5-(4pyridyl)-2-(3-pyridylmethyl)pyrazolo[3,4-b]pyridine] |  | 67.9
11 | Fc1ccc(-c2nc3nn(CCC4CCNCC4)cc3c(-c3ccc(F)cc3)c2-c2ccncc2)cc1 [Example 43, 4,6-Bis(4-fluorophenyl)-2-[2-(4-piperidyl)ethyl]-5-(4-pyridyl)pyrazolo[3,4-b]pyridine] |  | 61.2
12 | CC(CO)Nc1nccc(-c2cc3cn(C)nc3nc2-c2ccc(F)cc2)n1 (stereo not drawn) [Example 283, 2-[4-[6-(4-Fluorophenyl)-2-methylpyrazolo[3,4-b]pyridin-5-yl]pyrimidin-2-ylamino]propan-1-ol] |  | 52.4
13 | FC(F)(F)c1cccc(-c2nc3[nH]ncc3cc2-c2ccnc(NCc3ccccc3)n2)c1 [Example 290, N-Benzyl-[4-[6-(3-trifluoromethyl-phenyl)-1H-pyrazolo[3,4-b]pyridin-5-yl]pyrimidin-2-yl]amine] |  | 65.8
14 | Fc1ccc(-c2nc3[nH]nc(Cl)c3c(-c3ccc(F)cc3)c2-c2ccncc2)cc1 [Example 63, 3-Chloro-4,6-bis(4-fluorophenyl)-5-(4-pyridyl)-1H-pyrazolo[3,4-b]pyridine] |  | 53.2
15 | O=C(CNCCO)NCCn1cc2c(-c3ccc(F)cc3)c(-c3ccncc3)c(-c3ccc(F)cc3)nc2n1 [Example 250, N-[2-[4,6-Bis(4-fluorophenyl)-5-(4-pyridyl)pyrazolo[3,4-b]pyridin-2-yl]ethyl]-2-(2-hydroxyethylamino)acetamide] |  | 67
16 | Cc1c2c(-c3ccc(F)cc3)c(-c3ccncc3)c(-c3ccc(F)cc3)nc2nn1C1CCNCC1 [Example 41, 4,6-Bis(4-fluorophenl)-3-methyl-2-(4-piperidyl)-5-(4-pyridyl)pyrazolo[3,4-b]pyridine] | 90.6 | 
17 | OCCn1cc2cc(-c3ccnc(NCC4CC4)n3)c(-c3ccc(F)cc3)nc2n1 [Example 211, 2-[5-[2-[(Cyclopropylmethyl)-amino]pyrimidin-4-yl]-6-(4-fluorophenyl)pyrazolo[3,4-b]pyridin-2-yl]ethanol] |  | 70.6

Row | Compound | % Inhibition at 0.1 μM [%] | inhibition at 0.1 µM [%]
18 | CC(=O)Nc1n[nH]c2nc(-c3ccc(F)cc3)c(-c3ccnc(NCC4CC4)n3)cc12 [Example 268, N-[5-[2-[(Cyclopropylmethyl)amino]pyrimidin-4-yl]-6-(4-fluorophenyl)-1H-pyrazolo[3,4-b]pyridin-3-yl]acetamide] |  | 69.1
19 | c1ccc(-c2nc3[nH]ncc3cc2-c2ccnc(NCC3CC3)n2)cc1 [Example 282, N-Cyclopropylmethyl-4-[6-[phenyl-1H-pyrazolo[3,4-b]pyridin-5-yl]pyrimidin-2-yl]amine] | 65.2 | 
20 | 6-(4-Fluorophenyl)-4-methyl-5-(2-methylsulfanylpyrimidin-4-yl)-1H-pyrazolo[3,4-b]pyridine [Example 237] | 53.4 | 
21 | Fc1ccc(-c2nc3c(cnn3CC3CCNCC3)c(-c3ccc(F)cc3)c2-c2ccncc2)cc1 [Example 39, 4,6-Bis(4-fluorophenyl)-1-(4-piperidylmethyl)-5-(4-pyridyl)pyrazolo[3,4-b]pyridine] |  | 51.1
22 | Oc1ccc(-c2c(-c3ccncc3)c(-c3ccc(F)cc3)nc3[nH]ncc23)cc1 [Example 72, 4-[6-(4-Fluorophenyl)-5-(4-pyridyl)-1H-pyrazolo[3,4-b]pyridin-4-yl]phenol] |  | 52.7
23 | Cn1cc2cc(-c3ccnc(NCC4CC4)n3)c(-c3ccc(F)cc3)nc2n1 [Example 210, N-Cyclopropylmethyl-[4-[6-(4-fluorophenyl)-2-methylpyrazolo[3,4-b]pyridin-5-yl]pyrimidin-2-yl]amine] |  | 57.3
24 | CNCCCn1cc2c(-c3ccc(F)cc3)c(-c3ccncc3)c(-c3ccc(F)cc3)nc2n1 [Example 78, N-Methyl-[3-[4,6-bis(4-fluorophenyl)-5-(4-pyridyl)pyrazolo[3,4-b]pyridin-2-yl]propyl]amine] |  | 73.3
25 | FC(F)(F)c1cccc(-c2nc3[nH]ncc3cc2-c2ccnc(NCC3CC3)n2)c1 [Example 208, N-Cyclopropylmethyl-[4-[6-[3-(trifluoromethyl)phenyl]-1H-pyrazolo[3,4-b]pyridin-5-yl]pyrimidin-2-yl]amine] |  | 67.7
26 | NCc1n[nH]c2nc(-c3ccc(F)cc3)c(-c3ccncc3)c(-c3ccc(F)cc3)c12 [Example 68, 3-Aminomethyl-4,6-bis(4-fluorophenyl)-5-(4-pyridyl)-1H-pyrazolo[3,4-b]pyridine] |  | 50
27 | Cn1cc2c(-c3ccc(F)cc3)c(-c3ccnc(Nc4ccc(S(N)(=O)=O)cc4)c3)c(-c3ccc(F)cc3)nc2n1 [Example 214, 4-[4-[4,6-Bis(4-fluorophenyl)-2-methylpyrazolo[3,4-b]pyridin-5-yl]pyridin-2-ylamino]benzenesulfonamide] |  | 71.1
28 | OCCNCCn1cc2c(-c3ccccc3)c(-c3ccncc3)c(-c3ccccc3)nc2n1 [Example 232, 2-[2-(4,6-Diphenyl-5-(4-pyridyl)pyrazolo[3,4-b]pyridin-2-yl)ethylamino]ethanol] |  | 67.9
29 | OCCCNc1nccc(-c2cc3cn[nH]c3nc2-c2cccc(C(F)(F)F)c2)n1 [Example 287, 3-[4-[6-(3-Trifluoromethylphenyl)-1H-pyrazolo[3,4-b]pyridin-5-yl]pyrimidin-2-ylamino]propan-1-ol] |  | 71.2
30 | Cn1cnc(-c2c(-c3ccncc3)c(-c3ccc(F)cc3)nc3nn(C)cc23)c1 [Example 184, 6-(4-Fluorophenyl)-2-methyl-4-(1-methyl-1H-imidazol-4-yl)-5-(4-pyridyl)pyrazolo[3,4-b]pyridine] |  | 71.2
31 | O=C(NCCn1cc2c(-c3ccc(F)cc3)c(-c3ccncc3)c(-c3ccc(F)cc3)nc2n1)C1CCNCC1 [Example 248, N-[2-[4,6-Bis(4-fluorophenyl)-5-(4-pyridyl)pyrazolo[3,4-b]pyridin-2-yl]ethyl]piperidine-4-carboxamide] |  | 53.2
32 | Cc1ccc(-c2c(-c3ccncc3)c(-c3ccc(F)cc3)nc3nn(CCCO)cc23)o1 [Example 272, 3-[6-(4-Fluorophenyl)-4-(5-methylfuran-2-yl)-5-(4-pyridyl)-pyrazolo[3,4-b]pyridin-2-yl]propan-1-ol] |  | 65.6
33 | OCCCn1cc2cc(-c3ccnc(NCC4CC4)n3)c(-c3ccc(F)cc3)nc2n1 [Example 212, 3-[5-[2-[(Cyclopropylmethyl)-amino]pyrimidin-4-yl]-6-(4-fluorophenyl)pyrazolo[3,4-b]pyridin-2-yl]propan-1-ol] |  | 67.5
